Laboratory results taken from PMC8040053 (ACS Medicinal Chemistry Letters, 2021).

Columns and labels:
HDAC3 [1] = molecular target: T1, HDAC3 (Homo sapiens, UniProt O15379); assay: HDAC3 progress curve analysis / jump dilution; format: biochemical; conditions: HDAC3, linear progress curves
HDAC3 [2] = molecular target: T1, HDAC3; assay: HDAC3 inhibition assay; format: biochemical; conditions: for HDAC3 LBE: HDAC3-derived ligand binding efficiency
[3] = Lead profiling panel of 115 biochemical and binding assays at Eurofins Panlabs; conditions: 115-assay panel

T1 sequence (O15379 whole entry): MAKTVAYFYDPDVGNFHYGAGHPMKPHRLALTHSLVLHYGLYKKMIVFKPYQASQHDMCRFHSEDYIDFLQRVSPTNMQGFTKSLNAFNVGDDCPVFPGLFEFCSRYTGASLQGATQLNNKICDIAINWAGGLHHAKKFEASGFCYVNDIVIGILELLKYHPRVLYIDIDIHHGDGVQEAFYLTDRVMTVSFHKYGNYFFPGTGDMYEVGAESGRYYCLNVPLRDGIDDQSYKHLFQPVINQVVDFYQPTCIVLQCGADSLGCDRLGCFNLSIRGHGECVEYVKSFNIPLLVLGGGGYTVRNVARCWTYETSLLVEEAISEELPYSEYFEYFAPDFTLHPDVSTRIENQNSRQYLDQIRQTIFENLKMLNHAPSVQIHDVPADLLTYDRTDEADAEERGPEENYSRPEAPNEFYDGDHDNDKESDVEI
T1 sequence (Q9Y618 1-899 partner limits assumed): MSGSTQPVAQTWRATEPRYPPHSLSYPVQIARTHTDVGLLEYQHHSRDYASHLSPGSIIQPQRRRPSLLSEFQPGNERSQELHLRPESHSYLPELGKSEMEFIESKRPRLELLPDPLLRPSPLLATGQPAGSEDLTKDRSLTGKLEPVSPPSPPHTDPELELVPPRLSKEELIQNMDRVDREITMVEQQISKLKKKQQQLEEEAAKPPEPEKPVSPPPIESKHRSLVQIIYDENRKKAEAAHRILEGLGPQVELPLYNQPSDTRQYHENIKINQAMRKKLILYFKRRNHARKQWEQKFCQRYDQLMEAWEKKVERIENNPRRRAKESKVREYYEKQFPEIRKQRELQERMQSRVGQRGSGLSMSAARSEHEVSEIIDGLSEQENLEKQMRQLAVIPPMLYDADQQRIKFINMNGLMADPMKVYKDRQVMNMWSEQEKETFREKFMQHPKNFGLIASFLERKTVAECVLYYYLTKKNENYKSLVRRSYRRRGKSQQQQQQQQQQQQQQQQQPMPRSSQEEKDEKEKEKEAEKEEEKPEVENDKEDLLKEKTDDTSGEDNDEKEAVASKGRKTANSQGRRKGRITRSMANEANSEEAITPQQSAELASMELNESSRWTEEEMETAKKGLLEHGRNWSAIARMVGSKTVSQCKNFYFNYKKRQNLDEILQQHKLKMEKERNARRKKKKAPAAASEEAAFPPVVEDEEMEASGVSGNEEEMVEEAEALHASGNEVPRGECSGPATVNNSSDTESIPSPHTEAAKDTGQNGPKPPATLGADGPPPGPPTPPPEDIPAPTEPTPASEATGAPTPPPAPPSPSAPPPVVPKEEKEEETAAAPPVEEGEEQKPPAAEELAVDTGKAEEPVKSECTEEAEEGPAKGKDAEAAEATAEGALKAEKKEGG

| Structure (SMILES) | inhibition kinetics mechanism (HDAC3 [1]) | HDAC3 LBE (HDAC3 [2]) | selectivity for HDAC inhibition over off-target hits [3] | IC50 (HDAC3 [2]; read-out: HDAC3 IC50, Table 3) [nM] |
| --- | --- | --- | --- | --- |
| CCCC[C@H](NC(=O)C1CN(C)C1)c1ncc(-c2cc3ccccc3nc2OC)[nH]1 [Compound 12] | fast-on/fast-off kinetics | – | – | – |
| CCCC[C@H](NC(=O)[C@H](C)c1c(C)[nH]c2ccc(O)cc12)c1ncc(-c2cc3ccccc3nc2OC)[nH]1 [Compound 19] | fast-on/fast-off kinetics | 0.25 | 10–1000 fold | – |
| CCCC[C@H](NC(=O)[C@H](C)c1c(C)[nH]c2ccc(OC)cc12)c1ncc(-c2cc3ccccc3nc2OC)[nH]1 [Compound 20] | – | 0.25 | – | – |
| CCCC[C@H](NC(=O)[C@H](CN)c1c(C)[nH]c2ccc(OC)cc12)c1ncc(-c2cc3ccccc3nc2OC)[nH]1 [Compound 21] | – | – | – | 18 |
